# What was measured:
# [1] = Stability in solution (decay of SIRT1 fold-stimulation of aged stock); assay type: physicochemical; details: ethanol stock solution; ethanol stock 2.5 mM, room temperature, glass vials, nitrogen; assayed at 50 μM; read-out: Stability in Solution t1/2 (converted)
# Excerpt: The fold-stimulation (ratio to control) obtained with a compound diluted from an aged stock solution was compared to an identical dilution from a stock solution freshly prepared from the solid compound. “t1/2” is defined as the time required for the SIRT1 fold-stimulation of the compound from the aged solution to decay to one-half of that obtained from a freshly prepared solution. […] Stocks were aged by storage at room […] temperature, in glass vials, under a nitrogen atmosphere.
# recombinant human SIRT1 = target: T1, recombinant human SIRT1 (Homo sapiens, UniProt Q96EB6); assay: SIRT1 fluorescent deacetylation assay (p53-382 acetylated peptide substrate); assay type: biochemical
# T1 sequence (Q96EB6 1-747): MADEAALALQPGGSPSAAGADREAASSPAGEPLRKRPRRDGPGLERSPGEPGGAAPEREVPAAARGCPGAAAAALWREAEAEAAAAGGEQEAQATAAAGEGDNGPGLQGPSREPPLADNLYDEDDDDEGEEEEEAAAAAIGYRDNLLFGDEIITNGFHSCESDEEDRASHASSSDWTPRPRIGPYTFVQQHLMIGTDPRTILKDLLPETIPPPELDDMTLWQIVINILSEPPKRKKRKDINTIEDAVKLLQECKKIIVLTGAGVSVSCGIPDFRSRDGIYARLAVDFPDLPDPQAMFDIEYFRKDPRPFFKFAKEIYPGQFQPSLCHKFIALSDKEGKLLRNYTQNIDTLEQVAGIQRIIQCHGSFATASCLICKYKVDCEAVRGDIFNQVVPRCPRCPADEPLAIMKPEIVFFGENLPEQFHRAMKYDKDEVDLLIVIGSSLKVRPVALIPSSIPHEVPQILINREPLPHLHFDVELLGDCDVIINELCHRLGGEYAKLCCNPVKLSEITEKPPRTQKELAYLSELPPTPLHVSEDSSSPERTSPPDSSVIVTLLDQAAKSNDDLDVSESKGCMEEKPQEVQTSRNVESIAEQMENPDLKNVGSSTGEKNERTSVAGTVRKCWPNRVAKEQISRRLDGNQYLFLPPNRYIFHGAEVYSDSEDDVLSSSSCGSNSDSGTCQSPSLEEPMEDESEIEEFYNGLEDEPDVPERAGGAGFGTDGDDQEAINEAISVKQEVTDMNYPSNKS
# S. cerevisiae [2] = assay: Yeast chronological lifespan; assay type: cell-based; details: 10 μM or 100 μM
# S. cerevisiae [3] = assay: Yeast replicative lifespan; assay type: cell-based; details: 10 μM, wild type
# Procedure: (§1) Average lifespan was determined for wild type untreated (□), quercetin (◯) and piceatannol (●).
# [4] = test system: lysine 382 of p53 in HEK 293 cells; assay: p53 Ac-K382 Western blot in HEK 293 cells expressing dominant negative SIRT1-H363Y; assay type: cell-based, human; details: low concentrations of resveratrol
# C. elegans (strain N2) = assay: C. elegans lifespan; assay type: in vivo; details: 100 μM, 50 worms strain N2 (control 5 alive)
# Procedure: Thus, the presence of resveratrol in the growth media of C. elegans extends their lifespan.
# The effect of some of these compounds on lifespan was determined in yeast, C. elegans and D. melanogaster, as described above.
# [5] = test system: lysine 382 of p53 in U2OS osteosarcoma cells; assay: p53 Ac-K382 Western blot after UV radiation in U2OS cells; assay type: cell-based, human
# S. cerevisiae [6] = assay: Yeast replicative lifespan; assay type: cell-based
# [7] = test system: W303AR cells (rDNA locus RDN1); assay: Ribosomal DNA recombination frequency; assay type: cell-based, S. cerevisiae
# recombinant GST-Sir2 = recombinant GST-Sir2 (Saccharomyces cerevisiae, UniProt P06700); assay: Sir2 deacetylation rate assay; assay type: biochemical, S. cerevisiae; details: in vitro dose-response
# Sequence of recombinant GST-Sir2 (P06700 whole entry): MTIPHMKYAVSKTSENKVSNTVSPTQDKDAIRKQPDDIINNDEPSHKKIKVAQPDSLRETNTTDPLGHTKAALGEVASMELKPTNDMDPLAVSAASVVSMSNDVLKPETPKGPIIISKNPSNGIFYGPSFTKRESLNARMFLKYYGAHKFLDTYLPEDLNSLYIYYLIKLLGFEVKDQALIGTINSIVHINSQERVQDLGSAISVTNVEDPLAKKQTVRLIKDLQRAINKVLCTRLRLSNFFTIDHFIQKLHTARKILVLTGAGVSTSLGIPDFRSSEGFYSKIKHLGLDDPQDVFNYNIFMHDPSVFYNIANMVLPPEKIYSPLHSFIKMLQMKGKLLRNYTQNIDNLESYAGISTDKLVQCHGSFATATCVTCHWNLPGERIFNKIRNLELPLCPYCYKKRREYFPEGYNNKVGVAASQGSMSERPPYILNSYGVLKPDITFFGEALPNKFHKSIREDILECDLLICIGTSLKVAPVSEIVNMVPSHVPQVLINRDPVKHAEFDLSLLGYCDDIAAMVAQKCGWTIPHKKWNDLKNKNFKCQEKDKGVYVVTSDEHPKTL
# Procedure: as §1
# To investigate whether these compounds could stimulate sirtuins in vivo, we utilized S. cerevisiae, an organism in which the upstream regulators and downstream targets of Sir2 are relatively well understood.
# His6-tagged recombinant SIRT1 and GST-tagged recombinant Sir2 were prepared as described by (Bitterman et al. J Biol Chem 277, 45099-107. (2002). From 0.1 to 1 μg of SIRT1 and 1.5 μg of Sir2 were used per deacetylation assay (in 50 μl total reaction). SIRT1 assays and certain of those for Sir2 employed the p53-382 acetylated substrate (‘Fluor de Lys-SIRT1′, BIOMOL) rather than FdL.
# Themed compound libraries (BIOMOL) were used for primary and secondary screening. […] For water soluble compounds and negative controls, 1% v/v DMSO was added to the assay. […] HeLa cells were grown and the cellular deacetylation assays were performed and read, as above, but in full-volume 96-well microplates (Corning Costar 3595). […] Calculation of net fluorescence increases included subtraction of a blank value, which in the case of Sir2 was obtained by omitting the enzyme from the reaction and in the case of SIRT1 by adding an inhibitor (200 μM suramin or 1 mM nicotinamide) to the reaction prior to the acetylated substrate. […]
# [8] = 25 μM NAD+, 25 μM p53-382 acetylated peptide
smiles,measurement,setting,value
"Oc1ccc(/C=C/c2cc(O)cc(O)c2)cc1 [Resveratrol, 3,5,4′-Trihydroxy-trans-stilbene]",half-life at 50 µM,[1],59 h
same,Apparent Km for NAD+ and acetylated substrate,recombinant human SIRT1; 5 μM resveratrol in the presence of 50 μM nicotinamide,raised
same,Concentration at which the activating effect doubled the rate,recombinant human SIRT1; [8],~11 µM
same,Concentration at which the activating effect was essentially saturated,recombinant human SIRT1; [8],~100 µM
same,Effect on the two Vmax determinations,recombinant human SIRT1; 100 μM resveratrol,no significant effect
same,Lowering of Km for NAD+,"recombinant human SIRT1; 100 μM resveratrol, 1 mM p53-382 acetylated peptide",over 5 fold
same,Decrease of acetylated peptide Km,"recombinant human SIRT1; 100 μM resveratrol, 3 mM NAD+",35 fold
same,Km for both NAD+ and acetylated peptide,recombinant human SIRT1; 20 and 100 μM resveratrol in the presence of 50 μM nicotinamide,lowers
same,"Vmax, NAD+ varied","recombinant human SIRT1; +100 μM resveratrol, 1 mM p53-382 acetylated peptide (control 1863)",1749 AFU/min.
same,"Vmax, p53-382 acetylated peptide varied","recombinant human SIRT1; +100 μM resveratrol, 3 mM NAD+ (control 1107)",926 AFU/min.
same,Effect on chronological lifespan,S. cerevisiae [2],failed to extend
same,Effect on maximum lifespan,S. cerevisiae [3],significantly increased
same,Increase of average lifespan,S. cerevisiae [3],70%
same,Ability to promote deacetylation of p53 in cells expressing dominant-negative SIRT1 (H363Y),[4],diminished
same,Worms alive on day 17,C. elegans (strain N2),17 worms
same,Level of Ac-K382 of p53 compared to untreated cells,"[5]; 0.5 μM resveratrol, 4 hours pre-treatment, UV radiation",marked decrease
same,Level of Ac-K382 of p53,[5]; higher concentrations of resveratrol (>50 μM),reversed
same,Extension of the lifespan of a pnc1 null mutant,S. cerevisiae [6]; pnc1 null mutant,nearly as well as it did wild type cells
same,Lifespan benefit of concentrations higher than 10 μM,"S. cerevisiae [6]; resveratrol 100 μM, 500 μM",no added lifespan benefit
same,Effect on the lifespan of a sir2 null mutant,S. cerevisiae [6]; sir2 null mutant,no effect
same,rDNA recombination in a sir2 strain,[7]; sir2 strain,does not suppress
same,rDNA recombination in the presence of nicotinamide,[7]; with the Sir2 inhibitor nicotinamide,decreased
same,Concentrations at which inhibition of Sir2 was seen,recombinant GST-Sir2,> 100 µM
same,Optimum concentration of activator for Sir2 stimulation,recombinant GST-Sir2,2 to 5 µM
